Measured values taken from patent publication US5602101A, “Antithrombotic agents” (priority 1994, dated 1997).
Blank lines part the entries; values can stand above or below the compound they belong to.

What was measured:
Assay type in all cases: biochemical
Human Plasma [1] = assay: Anticoagulation in human plasma, activated partial thromboplastin time (APTT); settings: concentration required to double the APTT
Procedure: (§1) Dog plasma and rat plasma are obtained from conscious mixed-breed hounds (either sex, Hazelton-LRE, Kalamazoo, Mich., U.S.A.) or from anesthetized male Sprague-Dawley rats (Harlan Sprague-Dawley, Inc., Indianapolis, Ind., U.S.A.) by venipuncture into 3.8 percent citrate. Fibrinogen is prepared from in-date ACD human blood as the fraction I-2 according to previous procedures and specifications. Smith, Biochem. Chem. […] Human fibrinogen is also purchased as 98 percent pure/plasmin free from American Diagnostics, Greenwich, Conn. Coagulation reagents ACTIN, Thromboplastin, and Human plasma are from Baxter Healthcare Corp., Dade Division, Miami, Fla. Bovine thrombin from Parke-Davis (Ann Arbor, Mich.) is used for coagulation assays in plasma. Coagulation assay procedures are as previously described. Smith, et al., Thrombosis Research, 5, 163-174 (1988). A CoAScreener coagulation instrument (American LABor, Inc.) is used for all coagulation assay measurements. The prothrombin time (PT) is measured by adding 0.05 ml saline and 0.05 ml Thromboplastin-C reagent to 0.05 ml test plasma. The activated partial thromboplastin time (APTT) is measured by incubation of 0.05 ml test plasma with 0.05 ml Actin reagent for 120 seconds followed by 0.05 ml CaCl2 (0.02M). […] The compounds of formula I are added to human or animal plasma over a wide range of concentrations to determine prolongation effects on the APTT, PT, and TT assays. Linear extrapolations are performed to estimate the concentrations required to double the clotting time for each assay.

[2] = target: T1, tissue plasminogen activator (t-PA) (Homo sapiens, UniProt P00750); assay: Serine protease inhibition, t-PA (chromogenic substrate), Kass; settings: substrate H-D-Ile-Pro-Arg-p-nitroanilide
T1 construct: purchased American Diagnostics, Greenwich, Conn
Procedure: (§2) The assay is carried out by mixing 50 μl buffer (0.03M Tris, 0.15M NaCl, pH 7.4), 25 μl of human thrombin solution (purified human thrombin Enzyme Research Laboratories, South Bend, Ind.) at 8 NIH units/ml and 25 μl of test compound in a solvent (50% aqueous methanol (v:v)). Then 150 μl of an aqueous solution of the chromogenic substrate (at 0.25 mg/ml) are added and the rates of hydrolysis of the substrate are measured by monitoring the reactions at 405 nm for the release of p-nitroaniline. Standard curves are constructed by plotting free thrombin concentration against hydrolysis rate. The hydrolysis rates observed with test compounds are then converted to "free thrombin" values in the respective assays by use of the standard curves. The bound thrombin (bound to test compound) is calculated by subtracting the amount of free thrombin observed in each assay from the known initial amount of thrombin used in the assay. The amount of free inhibitor in each assay is calculated by subtracting the number of moles of bound thrombin from the number of moles of added inhibitor (test compound).
(§3) Kass is calculated for a range of concentrations of test compounds and the mean value is reported in units of liter per mole.
(§4) By substantially following the procedures described above for human thrombin, and using other human blood coagulation system serine proteases, and using fibrinolytic system serine proteases, with the appropriate chromogenic substrate, identified below, selectivity of the compounds of the present invention with respect to the coagulation factor serine proteases and to the fibrinolytic serine proteases are evaluated as well as their substantial lack of interference with human plasma clot fibrinolysis.
(§5) Human factors X, Xa, IXa, XIa, and xIIa are purchased from Enzyme Research Laboratories, South Bend, Ind.; human urokinase from Leo Pharmaceuticals, Denmark; and recombinant activated Protein C (aPC) is prepared at Eli Lilly and Co. substantially according to U.S. Pat. No. 4,981,952 incorporated by reference herein in its entirety. Chromogenic substrates: N-Benzoyl-Ile-Glu-Gly-Arg-p-nitroanilide (for factor Xa); N-Cbz-D-Arg-Gly-Arg-p-nitroanilide (for factor IXa assay as the factor Xa substrate) pyroglutamyl-Pro-Arg-p-nitroanilide (for factor XIa and for aPC); H-D-Pro-Phe-Arg-p-nitroanilide (for factor XIIa); and pyroglutamyl-Gly-Arg-p-nitroanilide (for urokinase); are purchased from KabiVitrum, Stockholm, Sweden, or from Midwest Biotech, Fishers, Indiana. Bovine trypsin is purchased from Worthington Biochemicals, Freehold, N.J., and human plasma kallikrein from Kabi Vitrum, Stockholm, Sweden. N-Benzoyl-Phe-Val-Arg-p-nitroanilide, the substrate for human thrombin and for trypsin, is synthesized according to procedures described above for the compounds of the present invention, known methods of peptide coupling from commercially available reactants, or was purchased from Midwest Biotech, Fishers, Ind. Human plasmin is purchased from Boehringer Mannheim, Indianapolis, Ind.; nt-PA is purchased as single chain activity reference from American Diagnostics, Greenwich, Conn.; modified-t-PA6 (mt-PA6) is prepared at Eli Lilly and Company by procedure known in the art (See, Burck, et al., J. Biol. Chem., 265, […] (1990). Plasmin chromogenic substrate H-D-Val-Leu-Lys-p-nitroanilide and tissue plasminegen activator (t-PA) substrate H-D-Ile-Pro-Arg-p-nitroanilide are purchased from Kabi Vitrum, Stockholm, Sweden.

Human Plasma [3] = assay: Anticoagulation in human plasma, prothrombin time (PT); settings: concentration required to double the PT
Procedure: as §1

Human plasmin = target: T2, Human plasmin (Homo sapiens, UniProt P00747); assay: Serine protease inhibition, plasmin (chromogenic substrate), Kass; settings: substrate H-D-Val-Leu-Lys-p-nitroanilide
T2 construct: Human plasmin is purchased from Boehringer Mannheim, Indianapolis, Ind; purchased Boehringer Mannheim, Indianapolis, Ind
Procedure: as §2, §3, §4, §5

Human Plasma [4] = assay: Anticoagulation in human plasma, thrombin time (TT); settings: concentration required to double the thrombin time
Procedure: as §1

Bovine trypsin = target: T3, Bovine trypsin (Bos taurus, UniProt P00760); assay: Serine protease inhibition, trypsin (chromogenic substrate), Kass; settings: substrate N-Benzoyl-Phe-Val-Arg-p-nitroanilide
T3 construct: Bovine trypsin is purchased from Worthington Biochemicals, Freehold, N.J; purchased Worthington Biochemicals, Freehold, N.J
T3 sequence (P00760 24-246): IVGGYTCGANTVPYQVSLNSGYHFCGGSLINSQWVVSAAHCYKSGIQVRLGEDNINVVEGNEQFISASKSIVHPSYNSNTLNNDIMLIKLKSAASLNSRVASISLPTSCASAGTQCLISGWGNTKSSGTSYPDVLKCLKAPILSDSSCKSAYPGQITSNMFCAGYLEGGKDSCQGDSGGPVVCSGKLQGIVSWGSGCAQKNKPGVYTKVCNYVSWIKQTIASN
Procedure: as §2, §3, §4, §5

factor Xa = target: T4, factor Xa (Homo sapiens, UniProt P00742); assay: Serine protease inhibition, factor Xa (chromogenic substrate), Kass; settings: substrate N-Benzoyl-Ile-Glu-Gly-Arg-p-nitroanilide
T4 construct: Human factors X, Xa, IXa, XIa, and xIIa are purchased from Enzyme Research Laboratories; purchased Enzyme Research Laboratories, South Bend, Ind
Procedure: as §2, §3, §4, §5

human thrombin = target: T5, human thrombin (Homo sapiens, UniProt P00734); assay: Inhibition of amidase activity of thrombin (chromogenic substrate), Kass; settings: substrate N-benzoyl-Phe-Val-Arg-p-nitroanilide, pH 7.4
T5 construct: purified human thrombin Enzyme Research Laboratories, South Bend, Ind; purchased Enzyme Research Laboratories, South Bend, Ind
Procedure: as §2
The Kass value is the hypothetical equilibrium constant for the reaction between thrombin and the test compound (I). [drawing 53]
as §3

T1 sequence (P00750 36-562): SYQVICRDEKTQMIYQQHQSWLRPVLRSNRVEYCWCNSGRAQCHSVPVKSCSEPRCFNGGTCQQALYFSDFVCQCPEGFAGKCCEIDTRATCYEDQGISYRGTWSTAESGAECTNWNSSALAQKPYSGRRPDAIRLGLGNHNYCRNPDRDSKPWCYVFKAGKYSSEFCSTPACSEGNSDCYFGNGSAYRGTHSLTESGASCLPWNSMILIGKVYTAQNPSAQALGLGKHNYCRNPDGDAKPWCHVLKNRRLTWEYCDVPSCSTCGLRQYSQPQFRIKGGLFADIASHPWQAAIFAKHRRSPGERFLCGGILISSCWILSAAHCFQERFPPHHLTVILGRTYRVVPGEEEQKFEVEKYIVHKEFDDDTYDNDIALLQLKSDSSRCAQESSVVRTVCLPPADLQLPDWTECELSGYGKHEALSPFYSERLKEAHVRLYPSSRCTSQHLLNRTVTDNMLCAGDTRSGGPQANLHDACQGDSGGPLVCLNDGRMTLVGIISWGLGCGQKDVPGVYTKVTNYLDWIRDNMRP
T2 sequence (P00747 581-810 limits assumed): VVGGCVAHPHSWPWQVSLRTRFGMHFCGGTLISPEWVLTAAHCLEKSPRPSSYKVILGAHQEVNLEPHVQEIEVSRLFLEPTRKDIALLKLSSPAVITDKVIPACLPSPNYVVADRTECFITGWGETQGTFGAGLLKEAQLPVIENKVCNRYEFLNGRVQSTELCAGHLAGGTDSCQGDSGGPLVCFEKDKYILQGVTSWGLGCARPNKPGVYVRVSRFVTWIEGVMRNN
T2 sequence (P00747 97-580 partner limits assumed): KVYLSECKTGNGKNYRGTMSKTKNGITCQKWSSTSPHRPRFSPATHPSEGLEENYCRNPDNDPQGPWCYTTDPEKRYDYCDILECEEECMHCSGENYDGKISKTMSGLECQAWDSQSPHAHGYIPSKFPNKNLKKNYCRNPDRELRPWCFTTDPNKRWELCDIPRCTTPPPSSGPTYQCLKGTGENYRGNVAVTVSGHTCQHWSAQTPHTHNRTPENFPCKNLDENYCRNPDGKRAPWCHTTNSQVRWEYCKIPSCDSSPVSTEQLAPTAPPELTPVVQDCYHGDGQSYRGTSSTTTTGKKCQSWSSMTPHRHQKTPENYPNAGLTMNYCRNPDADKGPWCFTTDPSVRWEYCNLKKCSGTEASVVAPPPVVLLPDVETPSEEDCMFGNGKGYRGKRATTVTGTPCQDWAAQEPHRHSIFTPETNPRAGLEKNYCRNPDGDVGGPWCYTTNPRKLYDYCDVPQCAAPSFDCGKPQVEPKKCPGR
T4 sequence (P00742 235-488 limits assumed): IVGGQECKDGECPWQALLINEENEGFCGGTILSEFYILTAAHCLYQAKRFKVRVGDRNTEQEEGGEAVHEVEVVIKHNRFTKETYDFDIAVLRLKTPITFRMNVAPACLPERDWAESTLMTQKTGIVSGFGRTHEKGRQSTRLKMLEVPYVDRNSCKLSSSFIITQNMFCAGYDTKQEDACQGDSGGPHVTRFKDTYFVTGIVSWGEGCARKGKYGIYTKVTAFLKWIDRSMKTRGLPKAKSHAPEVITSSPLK
T4 sequence (P00742 41-179 partner limits assumed): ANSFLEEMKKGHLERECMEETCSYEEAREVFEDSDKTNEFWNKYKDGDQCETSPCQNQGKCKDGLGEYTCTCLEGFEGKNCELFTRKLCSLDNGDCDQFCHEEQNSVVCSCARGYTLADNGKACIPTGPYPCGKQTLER

Structure (SMILES): COc1ccc(OC)c(S(=O)(=O)N[C@H](Cc2ccccc2)C(=O)N2CCC[C@H]2C(=O)N[C@H](C=O)CCCNC(=N)N)c1.Cl [Example 15, 2,5-(MeO)2 -PhSO2 -D-Phe-Pro-Arg-H-HCl]
2 × Clotting time, APTT (Human Plasma [1]): 550 ng/mL
Enzyme Kass, t-Pa [2]: 1.5 L/mol × 10^6
2 × Clotting time, PT (Human Plasma [3]): 2,000 ng/ML
Enzyme Kass, Plasmin (Human plasmin): 9.5 L/mol × 10^6
2 × Clotting time, TT (Human Plasma [4]): 92 ng/mL
Enzyme Kass, Trypsin (Bovine trypsin): 150 L/mol × 10^6
Enzyme Kass, Xa (factor Xa): 8.8 L/mol × 10^6
Enzyme Kass, Human Thrombin (human thrombin): 200 L/mol × 10^6

Structure (SMILES): Cc1noc(C)c1S(=O)(=O)N[C@H](Cc1ccccc1)C(=O)N1CCC[C@H]1C(=O)N[C@H](C=O)CCCNC(=N)N.Cl [Example 16, 3,5-Me-4-isoxazolyl-SO2 -D-Phe-Pro-Arg-H.HCl]
2 × Clotting time, APTT (Human Plasma [1]): 430 ng/mL
Enzyme Kass, t-Pa [2]: 2.7 L/mol × 10^6
2 × Clotting time, PT (Human Plasma [3]): 1,300 ng/ML
Enzyme Kass, Plasmin (Human plasmin): 18 L/mol × 10^6
2 × Clotting time, TT (Human Plasma [4]): 33 ng/mL
Enzyme Kass, Trypsin (Bovine trypsin): 200 L/mol × 10^6
Enzyme Kass, Xa (factor Xa): 11 L/mol × 10^6
Enzyme Kass, Human Thrombin (human thrombin): 260 L/mol × 10^6

Structure (SMILES): Cl.N=C(N)NCCC[C@@H](C=O)NC(=O)[C@@H]1CCCN1C(=O)[C@@H](Cc1ccccc1)NS(=O)(=O)c1nccs1 [Example 19, 2-Thiazolyl-SO2 -D-Phe-Pro-Arg-H-HCl]
2 × Clotting time, APTT (Human Plasma [1]): 810 ng/mL
Enzyme Kass, t-Pa [2]: 0.31 L/mol × 10^6
2 × Clotting time, PT (Human Plasma [3]): 2,900 ng/ML
Enzyme Kass, Plasmin (Human plasmin): 3.4 L/mol × 10^6
2 × Clotting time, TT (Human Plasma [4]): 66 ng/mL
Enzyme Kass, Trypsin (Bovine trypsin): 52 L/mol × 10^6
Enzyme Kass, Xa (factor Xa): 2.8 L/mol × 10^6
Enzyme Kass, Human Thrombin (human thrombin): 68 L/mol × 10^6

Structure (SMILES): Cl.N=C(N)NCCC[C@@H](C=O)NC(=O)[C@@H]1CCCN1C(=O)[C@@H](Cc1ccccc1)NCC(=O)O [Example 35, HOOCCH2 -D-Phe-Pro-ArgH.HCl]
2 × Clotting time, APTT (Human Plasma [1]): 723 ng/mL
2 × Clotting time, PT (Human Plasma [3]): 1129 ng/mL
2 × Clotting time, TT (Human Plasma [4]): 14 ng/mL
Enzyme Kass, Xa (factor Xa): 3.3 L/mol × 10^6
Enzyme Kass, Human Thrombin (human thrombin): 695 L/mol × 10^6

Structure (SMILES): Cl.N=C(N)NCCC[C@@H](C=O)NC(=O)[C@@H]1CCCN1C(=O)[C@@H](CC1CCCCC1)NCC(=O)O [Example 36, HOCCH2 -D-Cha-Pro-ArgH.HCl]
2 × Clotting time, APTT (Human Plasma [1]): 284 ng/mL
2 × Clotting time, PT (Human Plasma [3]): 695 ng/mL
2 × Clotting time, TT (Human Plasma [4]): 9 ng/mL
Enzyme Kass, Xa (factor Xa): 40.5 L/mol × 10^6
Enzyme Kass, Human Thrombin (human thrombin): 556 L/mol × 10^6

Now from value to compound, other results behind:

Enzyme Kass, t-Pa [2]: 0.22 L/mol × 10^6
Enzyme Kass, Plasmin (Human plasmin): 0.27 L/mol × 10^6
Enzyme Kass, Trypsin (Bovine trypsin): 5.2 L/mol × 10^6
Enzyme Kass, Xa (factor Xa): 0.067 L/mol × 10^6
Enzyme Kass, Human Thrombin (human thrombin): 13 L/mol × 10^6
Structure (SMILES): Cl.NC(N)=NCCCC(C=O)NC(=O)C1CCCN1C(=O)C(Cc1ccccc1)NC(=O)Cc1cccnc1 [Example 4, N-(α-(3-pyridyl)-acetyl)-D-Phe-Pro-Arg-H-HCl]
2 × Clotting time, APTT (Human Plasma [1]): 2,300 ng/ML
2 × Clotting time, PT (Human Plasma [3]): 3,400 ng/ML
2 × Clotting time, TT (Human Plasma [4]): 150 ng/mL

Enzyme Kass, t-Pa [2]: 1.1 L/mol × 10^6
Enzyme Kass, Plasmin (Human plasmin): 25 L/mol × 10^6
Enzyme Kass, Trypsin (Bovine trypsin): 7.9 L/mol × 10^6
Enzyme Kass, Xa (factor Xa): 4.6 L/mol × 10^6
Enzyme Kass, Human Thrombin (human thrombin): 320 L/mol × 10^6
Structure (SMILES): Cl.Cn1c(C(=O)NC(CC2CCCCC2)C(=O)N2CCCC2C(=O)NC(C=O)CCCN=C(N)N)cc2ccccc21 [Example 5, NMI-D-Cha-Pro-Arg-H.HCl]
2 × Clotting time, APTT (Human Plasma [1]): 1,000 ng/ML
2 × Clotting time, PT (Human Plasma [3]): 2,500 ng/ML
2 × Clotting time, TT (Human Plasma [4]): 110 ng/mL

Enzyme Kass, t-Pa [2]: 0.088 L/mol × 10^6
Enzyme Kass, Plasmin (Human plasmin): 2.5 L/mol × 10^6
Enzyme Kass, Trypsin (Bovine trypsin): 2.5 L/mol × 10^6
Enzyme Kass, Xa (factor Xa): 0.83 L/mol × 10^6
Enzyme Kass, Human Thrombin (human thrombin): 200 L/mol × 10^6
Structure (SMILES): Cl.NC(N)=NCCCC(C=O)NC(=O)C1CCCN1C(=O)C(CC1CCCCC1)NC(=O)c1ccc2ccccc2n1 [Example 6, N-(quinolinyl-2-carbonyl)-D-Cha-Pro-Arg-H-HCl]
2 × Clotting time, APTT (Human Plasma [1]): 1,400 ng/ML
2 × Clotting time, PT (Human Plasma [3]): 2,700 ng/ML
2 × Clotting time, TT (Human Plasma [4]): 97 ng/mL
